In the case of `COc1ccc(C(=O)CC(=O)c2snc(Cl)c2Cl)cc1`, the melting point (usually the temperature, or range, at which the solid turns liquid) was in the range of 138 to 139 °C.
Take `COc1ccc(S(=O)(=O)N(C(=O)c2snc(Cl)c2Cl)c2ccc(Cl)cc2)cc1` [Ia-68, N-(3,4-dichloro-5-isothiazolecarbonyl)-N-(4-chlorophenyl)-4-methoxybenzenesulfonamide]: the melting point lay in the range of 154 to 158 °C.
In the case of `CCOCOc1ccc(C(=O)CC(=O)c2snc(Cl)c2Cl)cc1` [Ic-145, 1-(3,4-dichloro-5-isothiazolyl)-3-(4-ethoxymethoxyphenyl)-1,3-propanedione] it was 174 °C; in that of `O=C(CC(=O)c1snc(Cl)c1Cl)c1ccc(O)cc1` [Ic-148, 1-(3,4-dichloro-5-isothiazolyl)-3-(4-hydroxyphenyl)-1,3-propanedione], 224 to 227 °C; in that of `COC(=O)C(C#N)C(=O)c1snc(Cl)c1Cl` (centres unmarked) [Ie-1, methyl 2-cyano-3-(3,4-dichloro-5-isothiazolyl)-3-oxopropanoate], 119 to 122 °C.

Source of the values: patent US6706748B2 (priority 2000, dated 2004).
